# Patent US6872743B2, “sPLA2 inhibitors” (Eli Lilly and Company, priority 2000, dated 2005)
# Target: T1, recombinant human secreted phospholipase A2 (Homo sapiens, UniProt P14555)
# T1 sequence (P14555 21-144): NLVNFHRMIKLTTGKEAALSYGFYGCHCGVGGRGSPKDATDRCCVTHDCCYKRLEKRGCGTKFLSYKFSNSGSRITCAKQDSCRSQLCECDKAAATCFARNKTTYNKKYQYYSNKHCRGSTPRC
# Assay: chromogenic assay for inhibitors of recombinant human secreted phospholipase A2
# Type: biochemical
# Settings: diheptanoyl thio-PC substrate, pH 7.5, 40° C. for 30 minutes, absorbance at 405 nanometers, titrated in triplicate
# Source text: The following chromogenic assay procedure was used to identify and evaluate inhibitors of recombinant human secreted phospholipase A2. The assay described herein has been adapted for high volume screening using 96 well microtiter plates. A general description of this assay method is found in the article, “Analysis of Human Synovial Fluid Phospholipase A2 on Short Chain Phosphatidylcholine-Mixed Micelles: Development of a Spectrophotometric Assay Suitable for a Microtiterplate Reader”, by Laure J. Reynolds, Lori L. Hughes, and Edward A Dennis, Analytical Biochemistry, 204, pp. 190-197, 1992 (the disclosure of which is incorporated herein by reference):
# A measured volume of racemic dipheptanoyl thio PC supplied in chloroform at a concentration of 100 mg/ml is taken to dryness and redissolved in 10 millimolar TRITON X-100™ nonionic detergent aqueous solution. Reaction Buffer is added to the solution, then DTNB to give the Reaction Mixture.
# The reaction mixture thus obtained contains 1 mM diheptanoly thio-PC substrate, 0.29 mm Triton X-100™ detergent, and 0.12 mm DTMB in a buffered aqueous solution at pH 7.5.
# • 1. Add 0.2 ml reaction mixture to all wells; • 2. Add 10 ul test compound (or solvent blank) to appropriate wells, mix 20 seconds; • 3. Add 50 nanograms of sPLA2 (10 microliters) to appropriate wells; • 4. Incubate plate at 40° C. for 30 minutes; • 5. Read absorbance of wells at 405 nanometers with an automatic plate reader.
# Tests were done in triplicate. Typically, compounds were tested at a final concentration of 5 ug/ml. […] Lack of color development at 405 nanometers evidenced inhibition. Compounds initially found to be active were re-assayed to confirm their activity and, if sufficiently active, IC50 values were determined. […] In all cases, % inhibition measured at 405 nanometers generated by enzyme reactions containing inhibitors relative to the uninhibited control reactions was determined. […] IC50 values were determined by plotting log concentration versus inhibition values in the range from 10-90% inhibition.
row,Compound,IC50
1,"NC(=O)c1cccc2c1c1c(OCC(=O)O)cc3c(c1n2Cc1ccccc1)CCCC3 [Example 1, (11-Benzyl-7-carbamoyl-2,3,4,11-tetraydro-1H-benzo[a]carbazol-6-yloxy)acetic Acid]",0.015 µM
2,"NC(=O)c1cccc2c1c1c(OCC(=O)O)cc3c(c1n2Cc1ccccc1)CCC3 [Example 2, (10-Benzyl-6-carbamoyl-1,2,3,10-tetraydrocyclopenta[a]carbazol-5-yloxy)acetic Acid]",0.012 µM
3,"COC(=O)COc1cc2ccccc2c2c1c1c(C(N)=O)cccc1n2Cc1ccccc1 [Example 3, (11-Benzyl-7-carbamoyl-11H-benzo [a]carbazol-6-yloxy)acetic acid methyl ester]",0.0094 µM
